# Measured values published in patent US12234257B2, “Triterpene saponin derivative and use thereof” (KOREA INSTITUTE OF SCIENCE AND TECHNOLOGY, priority 2020, dated 2025).
# Entries after “also recorded” stand apart in the source; their conditions may differ.
# Legend:
# SH-SY5Y cells = test: MTT assay to measure cell viability; format: cell-based, human; conditions: 24 hours
# Experimental: Cell viability was detected using an MTT assay kit (Z-Cytox). Briefly, the SH-SY5Y cells were seeded on a 96-well plate at a density of 2×10^4 cells/well with 100 μL of a culture medium. After 24 hours, the SH-SY5Y cells were treated with AKNS-2 and/or MPP^+ having desired concentrations to identify cytotoxicity of AKNS-2 and MPP^+. After 24 hours, 10 μL of the MTT reagent was added to each well of the 96-well plate including the cells. Absorbance was measured at 450 nm using a microplate spectrophotometer (BioTek, Vt., USA). […] The next day, absorbance was measured at 1 hour after adding the MTT reagent thereto.
# [1] = tested on: autophagy-related protein markers including LC3, p62, AMPK, Erk, ULK, and mTOR; test: Western blot of autophagy-related protein markers in ST and SN of mice; format: in vivo, mice (C57BL/6j); conditions: for expression of p-mTOR in ST / p-mTOR in SN: MPTP mice; for expression of p-ULK: ST and SN, vs MPTP
# Experimental: (§1) 40 mice were classified into five groups such that eight mice belonged to each group. After the habituation period, all mice were orally administered with a drug every day. While the mice of Groups 1 and 2 were administered with saline (p.o.), the mice of Groups 3, 4, and 5 were administered with 5 mg/kg ropinirole (p.o.), 5 mg/kg AKNS-2 (p.o.), and 15 mg/kg AKNS-2 (p.o.), respectively. From the 5th day therefrom, the mice of Group 1 were intraperitoneally administered with a saline at 1 hour after gavage feeding of saline, and the mice of Groups 2, 3, 4, and 5 were administered with 30 mg/kg MPTP (i.p.) at 1 hour after gavage feeding of saline, ropinirole, AKNS-2 (5 mg/kg), and AKNS-2 (15 mg/kg), respectively. Each mouse was administered with a single dose of saline/MPTP injection every day for 8 days. At 7 days after the final MPTP injection, all mice were sacrificed by cervical dislocation, and then the whole brain, SNpc, and striatum (ST) were excised for biochemical analysis.
# (§2) On the 7th day after the last administration of MPTP, SNpc and ST of each mouse were carefully excised and stored at −80° C. until use. Thereafter, brain tissue of SNpc and ST was homogenized in a PRO-PREP™ lysis buffer (iNtRON, Gyeonggi, Korea) containing a phosphatase inhibitor cocktail set I (Sigma-Aldrich, Mo., USA). After shaking at 4° C. for 30 minutes, homogenates were centrifuged at 4° C. at 13000×g for 20 minutes, and a supernatant obtained therefrom was collected and added to a new 1.5 mL tube. A concentration of proteins contained in the supernatant was measured by the Bradford method. A part of the supernatant was mixed with the same volume of a loading buffer and denatured in a heater at 99° C. for 5 minutes for western blot analysis. The remaining supernatant was stored at −80° C. for subsequent tests for MAO-B activity and DA level using an ELISA kit.
# (§3) Protein markers contained in lysates of the SH-SY5Y cells and brain tissue of the mice (SNpc and ST) were measured by western blot analysis. […] Then, proteins separated on the gel were transferred to a polyvinylidene fluoride (PVDF) membrane for 45 minutes using a Trans-Blot Turbo Transfer System (Bio-Rad, USA). The membrane was washed with tris-buffered saline with 0.1% Tween 20, TBST) for 5 minutes and then blocked by 5% skim milk dissolved in a TBST buffer. The membrane was further incubated with monoclonal primary antibodies derived from rabbits (anti-GAPDH, anti-AMPK, anti-p-AMPK, anti-ULK, anti-p-ULK555, anti-Erk, anti-p-Erk, anti-mTOR, anti-p-mTOR, anti-LC3B, anti-TH, and anti-α-synuclein antibodies). The primary antibodies were diluted in a blocking buffer at a ratio of 1:1000 and incubated overnight at 4° C. On the second day, the membrane was washed with TBST three times (10 minutes each) and incubated at room temperature in a horseradish peroxidase-conjugated goat anti-rabbit IgG secondary antibody (diluted in a blocking buffer at a ratio of 1:2000). After incubating in the secondary antibody for 1 hour, the membrane was washed for 30 minutes. The protein blots on the membrane were developed using an ECL detection kit and visualized using an LAS-4000 mini system (Fujifilm, Japan). The intensity of the protein blots was quantified using Multi Gauge software (Fujifilm, Japan).
# DA level in ST = test: Measurement of DA level in ST (ELISA); format: in vivo, mice (C57BL/6j); conditions: MPTP 30 mg/kg mice
# Experimental: 40 mice were classified into five groups such that eight mice belonged to each group. After the habituation period, all mice were orally administered with a drug every day. While the mice of Groups 1 and 2 were administered with saline (p.o.), the mice of Groups 3, 4, and 5 were administered with 5 mg/kg ropinirole (p.o.), 5 mg/kg AKNS-2 (p.o.), and 15 mg/kg AKNS-2 (p.o.), respectively. […]
# On the 7th day after the last administration of MPTP, SNpc and ST of each mouse were carefully excised and stored at −80° C. until use. […] A concentration of proteins contained in the supernatant was measured by the Bradford method. […]
# DA levels in ST were measured using a competitive ELISA kit (Abnova, Taipei City, Taiwan) according to the manufacturer's instructions. […] After determining a concentration of proteins contained in the supernatant, the DA level in each brain sample was detected twice using the ELISA kit. Absorbance was measured using a microreader (BioTek, Vt., USA) at 450 nm, and the intensity was inversely proportional to the DA level. The DA level was expressed as ng/mg protein.
# TH and α-synuclein = test: Western blot of TH and α-synuclein in ST and SN of MPTP-impaired mice; format: in vivo, mice (C57BL/6j); conditions: for α-synuclein level: vs MPTP-treated mice; for TH level: MPTP mice
# Experimental: as §1, §2
# as §3, with “On the second day, the membrane was washed with TBST three times (10 minutes each) and incubated at room temperature in a horseradish peroxidase-conjugated goat anti-rabbit IgG secondary antibody (diluted in a blocking buffer at a ratio of 1:2000). After incubating in the secondary antibody for 1 hour, the membrane was washed for 30 minutes. The protein blots on the membrane were developed using an ECL detection kit and visualized using an LAS-4000 mini system (Fujifilm, Japan).” left out
# [2] = 15 mg/kg p.o., vs MPTP treatment
# [3] = both ST and SN, vs MPTP treatment
# [4] = both ST and SN, 5 mg/kg and 15 mg/kg p.o.
SMILES,cell viability damaged by MPP^+ (MTT) (SH-SY5Y cells; AKNS-2 5 μM and 10 μM 1 hour before 2 mM MPP^+),"cytotoxicity (cell viability, MTT) (SH-SY5Y cells; AKNS-2 alone, up to 40 μM)","expression of LC3-II in SN [1, 2]","expression of LC3-II in ST [1, 2]",expression of p-mTOR in ST [1],p-mTOR in SN [1],expression of p-ULK ([1]; 5 mg/kg and 15 mg/kg p.o.),"p62 levels ([1]; both ST and SN, 5 mg/kg and 15 mg/kg p.o., vs MPTP-treated group)","expression of p-Erk ([1]; both ST and SN, 15 mg/kg p.o., vs MPTP treatment)","p-AMPK [1, 3]",DA level in ST (DA level in ST; 15 mg/kg p.o.),α-synuclein level (TH and α-synuclein; [4]),TH level (TH and α-synuclein; [4]),expression of p-ULK ([1]; ropinirole),DA level in ST (DA level in ST; 5 mg/kg p.o.),"α-synuclein level (TH and α-synuclein; ST and SN, 5 mg/kg p.o.)","TH level (TH and α-synuclein; both ST and SN, 5 mg/kg p.o.)"
"C[C@@H]1O[C@@H](O[C@@H]2[C@@H](O)[C@H](O[C@@H]3[C@@H](O[C@@H]4OC[C@@H](O)[C@H](O)[C@H]4O)[C@@H](O)[C@H](O[C@H]4[C@H](OC(=O)[C@]56CCC(C)(C)C[C@H]5C5=CC[C@@H]7[C@@]8(C)C[C@H](O)[C@H](O[C@@H]9O[C@H](CO)[C@@H](O)[C@H](O[C@@H]%10OC[C@@H](O)[C@H](O)[C@H]%10O)[C@H]9O)[C@@](C)(CO)[C@@H]8CC[C@@]7(C)[C@]5(C)C[C@H]6O)OC[C@H](O)[C@@H]4O)O[C@H]3C)OC[C@H]2O)[C@H](O)[C@H](O)[C@H]1O [Compound 1, 3-O-β-D-xylopyranosyl-(1→3)-β-D-glucopyranosylpolygalacic acid 28-O-α-L-rhamnopyranosyl-(1→3)-β-D-xylopyranosyl-(1→4)-[β-D-xylopyranosyl-(1→3)]-α-L-rhamnopyranosyl-(1→2)-α-L-arabinopyranosyl ester]",significantly improved cell viability damaged by 2 mM MPP^+; also recorded: significantly enhanced cell viability that had decreased by MPP^+; also recorded: reversed the effects of MPP^+ on cell viability,did not significantly affect cytotoxicity,"Although no noticeable difference was observed, increased expression of LC3-II was observed in SN",induced a significant increase in the expression of LC3-II in ST,clearly showed a tendency to decrease the expression of p-mTOR in ST,a significant decrease in p-mTOR,significantly increased the expression of p-ULK in ST and SN,significantly decreased p62 levels,significantly increased,induced a significant increase in p-AMPK in both ST and SN,the decrease in the DA level induced by MPTP was restored,a significant decrease in the α-synuclein level,considerably reversed,,,,
"CCCN(CCC)CCc1cccc2c1CC(=O)N2 [ropinirole, reference compound]",,,,,clearly showed a tendency to decrease the expression of p-mTOR in ST,a significant decrease in p-mTOR,,,,induced a significant increase in p-AMPK in both ST and SN,,,,significantly increased the expression of p-ULK in ST and SN,the decrease in the DA level induced by MPTP was restored,a significant decrease in the α-synuclein level,considerably reversed
